Source: patent US20190231668A1, “SKIN WHITENING COMPOSITION CONTAINING MANNOSYLERYTHRITOL LIPID” (AMOREPACIFIC CORPORATION, priority 2016, published 2019)

Test system: B16F10 (melanoma cell) cell line
Experiment: Inhibitory effect on melanin production in α-MSH-stimulated melanin pigment producing cells
Assay type: cell-based, mouse
Conditions: medium with α-MSH (200 nM) and 100 ppm of substance, untreated medium = 100%, α-MSH alone about 270%
Protocol: The inhibitory effect on melanin production in melanin pigment producing cells by the mannosylerythritol lipid (hereinafter referred to as MEL) was measured. As the cell line and serum, the mouse-derived B16F10 (melanoma cell) cell line purchased from ATCC and FBS (Cat No. 30-2020) were used. The DMEM (Cat No. 11995) required for cell culture and antibiotic-antifungal agent (Cat No. 15240-062) were purchased from Invitrogen company (GIBCO). The cell line was cultured under the conditions of 37° C., 10% CO2. […] Kojic acid was used as a positive control. After the fifth day, 1N NaOH was added and reacted at 60° C. for 2 hours to dissolve the melanin contained in the cells, and then measured the amount of melanin by measuring the absorbance at 405 nm. […] It was confirmed that the expression amount of melanin pigment by B16F10 cells in the medium supplemented with α-MSH and 100 ppm of kojic acid is about 110%, and thus the expression of melanin pigment was inhibited, and it was confirmed that the expression amount of melanin pigment in the medium supplemented with α-MSH and 1 ppm of MEL was about 180%, and the expression amount of melanin pigment in the medium supplemented with α-MSH and 5 ppm of MEL was about 90% and thus the expression of melanin pigment was inhibited.

O=c1cc(CO)occ1O [kojic acid]
expression amount of melanin pigment: about 110%
